# Test results taken from ChEMBL document CHEMBL1151620, “Rollinone, a new cytotoxic acetogenin from Rollinia papilionella” (1984).
# Assays:
# P388 [1] = assay: In vivo antitumor activity against mouse P388 lymphocytic leukemia in mouse at 1.4 mg/kg; format: functional
# P388 [2] = assay: Cytotoxicity against mouse P388 cells; format: functional
compound,measurement,setting,value
CCCCCCCCCCC(O)C1CCC(C2CCC(C(O)C(=O)CCCCCCCCCCCC3CC(C)OC3=O)O2)O1 (configuration not stated) [ROLLINONE],T/C,P388 [1],147%
same,ED50,P388 [2],<1 ×10⁻⁵ ug/ml
